Results: article PMC12589586, “Targeting TAZ-TEAD in minimal residual disease enhances the duration of targeted therapy in melanoma models” (Nature Communications, 2025)

How the values were obtained:
[1] = molecular target: T1, TEAD4 (Mus musculus, UniProt Q62296); assay: protein thermal shift assay (delta Tm); no binding to palmitoylated TEAD4
T1 construct: FLAG-tagged mTEAD4, depalmitoylated

[2] = molecular target: T2, TEAD1 (Homo sapiens, UniProt P28347); assay: protein thermal shift assay (delta Tm); type: binding; design: FLAG-tagged hTEAD1, depalmitoylated
[3] = molecular target: T2, TEAD1; assay: co-crystal structure ([…] Å); also protein thermal shift; type: binding; design: FLAG-tagged hTEAD1, depalmitoylated (thermal shift)

T1 sequence (Q62296 whole entry): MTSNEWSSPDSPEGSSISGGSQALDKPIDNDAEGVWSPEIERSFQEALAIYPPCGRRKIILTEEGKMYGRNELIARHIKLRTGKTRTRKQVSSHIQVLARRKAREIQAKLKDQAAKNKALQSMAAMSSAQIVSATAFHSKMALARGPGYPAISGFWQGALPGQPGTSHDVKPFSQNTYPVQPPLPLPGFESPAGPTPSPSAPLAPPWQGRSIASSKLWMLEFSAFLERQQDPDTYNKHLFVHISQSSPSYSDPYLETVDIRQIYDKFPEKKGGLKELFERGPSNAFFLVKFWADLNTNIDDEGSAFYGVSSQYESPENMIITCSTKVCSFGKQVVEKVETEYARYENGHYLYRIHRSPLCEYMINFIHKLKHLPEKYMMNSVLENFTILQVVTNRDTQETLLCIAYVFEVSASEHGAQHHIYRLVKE
T2 sequence (P28347 whole entry): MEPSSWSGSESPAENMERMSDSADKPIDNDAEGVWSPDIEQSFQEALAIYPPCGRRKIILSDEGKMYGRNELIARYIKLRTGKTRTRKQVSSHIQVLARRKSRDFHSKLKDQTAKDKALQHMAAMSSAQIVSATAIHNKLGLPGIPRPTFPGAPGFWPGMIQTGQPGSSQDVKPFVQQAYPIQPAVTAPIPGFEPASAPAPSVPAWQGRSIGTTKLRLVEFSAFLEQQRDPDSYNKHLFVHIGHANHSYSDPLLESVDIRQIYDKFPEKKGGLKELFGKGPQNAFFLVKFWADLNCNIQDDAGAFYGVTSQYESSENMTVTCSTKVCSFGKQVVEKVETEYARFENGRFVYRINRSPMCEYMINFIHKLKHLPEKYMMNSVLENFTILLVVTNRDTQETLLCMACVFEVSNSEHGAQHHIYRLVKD

Compound | protein thermal shift assay (delta Tm); no binding to palmitoylated TEAD4 [1] | protein thermal shift assay (delta Tm) [2] | co-crystal structure (2.03 Å); also protein thermal shift [3]
C=CC(=O)N1CCc2ccc(Oc3ccc(C(F)(F)F)cc3)cc2C1 [OPN-9643, 1-(7-(4-(trifluoromethyl)phenoxy)-3,4-dihydroisoquinolin-2(1H)-yl)prop-2-en-1-one] | Incubation of these compounds with depalmitoylated TEAD4 resulted in significant Tm shifts, indicating binding and stabilization of target proteins | protein thermal shift analysis and confirmed the binding of both compounds to depalmitoylated TEAD1 and TEAD4 proteins | –
C=CC(=O)N1CCc2ccc(Oc3ccc(C(F)(F)F)c(F)c3)cc2C1 [OPN-9652, 1-(7-(3-fluoro-4-(trifluoromethyl)phenoxy)-3,4-dihydroisoquinolin-2(1H)-yl)prop-2-en-1-one] | Incubation of these compounds with depalmitoylated TEAD4 resulted in significant Tm shifts, indicating binding and stabilization of target proteins | – | OPN-9652 occupies the central palmitate-binding pocket and covalently modifies Cys359
